Results reported in US8865763B2, “Methods and compositions for altering cell function” (Alltech, Inc., priority 2005, dated 2014).

How the values were obtained:
[1] = Hen Brain Se Concentration; type: in vivo, White-Egg-Laying Hens; conditions: hens; diet with 0.3 ppm Se from the source
Protocol: (§1) Compositions and methods of the present invention were utilized to evaluate the effects of various Se sources on the accumulation of brain Se concentrations in hens and their offspring.
(§2) The study was conducted at the Coldstream Research Facility from Jun. 28, 2004 until Nov. 16, 2004. Six dietary treatments were fed to a total of 48 hens (r=8) that were bred on three consecutive days starting on Sep. 16, 2004.
(§3) • Basal (no added Se) • Selenite (0.3 ppm) • Sel Plex (0.3 ppm) • Tepsel (0.3 ppm) • Se 2000 (0.3 ppm) • Selenosource (0.3 ppm)
(§4) Chicks that hatched were divided into two groups. Half of the chicks were killed for brain collection and the remaining chicks were allowed to grow for 14 days on a Se deficient diet, at which time they were terminated for brain collection. Hen brains were analyzed for Se content individually, whereas the chick brains were homogenized and pooled because of small sample size.
(§5) Brain Se concentrations for the hens and chicks are shown in Tables 4 and 5, below, respectively. The Selenosource value represents only one hen brain analyzed and therefore was not included in the statistical analysis.

[2] = Chick Brain Se Concentration at day 14; type: in vivo, chicks (offspring of treated hens); conditions: offspring of hens fed 0.3 ppm Se; chicks 14 days on Se deficient diet; pooled brains
Protocol: as §1, §2, §3, §4, §5

Glutathione Peroxidase 3 = experiment: Microarray gene expression, mouse intestine: Glutathione Peroxidase 3; type: in vivo; conditions: diet 1 ppm Se, vs selenium deficient, all p < 0.01
Text: (§6) Animal Care. Male C57BL/6J mice were housed singly and started on the experimental diets described below immediately after weaning (21 days of age). The mice were maintained in the Shared Aging Rodent Facility at the William S. Middleton Memorial Veterans Administration Medical Center (Madison, Wis.). Temperature and humidity were maintained at constant levels. Room light was controlled to provide 12-hr cycles of light and dark.
(§7) Experimental diets were created by Harlan Teklad (Madison, Wis.). Selenium content of the diets was determined by Covance Inc. (Madison, Wis.). Five (5) animals were included in each of the following treatment groups: a diet deficient in selenium (SD); a diet supplemented with selenomethionine (SM, obtained from Sigma, St. Louis, Mo.) such that the final selenium content of the diet was one (1) part per million; a diet supplemented with sodium selenite (SS, Sigma) such that the final concentration of selenium in this diet was one (1) part per million; or a diet supplemented with the yeast selenium SEL-PLEX (SP, Alltech, Lexington, Ky.), such that the final concentration of selenium in this diet was one (1) part per million. SEL-PLEX. […]
(§8) Tissue sample preparation and microarray analysis. […] For intestinal expression studies, the intestine was flushed twice with saline solution and small intestine was measured and divided in three equal segments. […]

[3] = tested on: Complement component 1, r subcomponent, C1r; experiment: Microarray gene expression, mouse cerebral cortex: C1r; type: in vivo; conditions: diet 1 ppm Se, vs selenium deficient, * p<0.01
Text: as §6, §7, §8

Gadd45b = experiment: Microarray gene expression, mouse cerebral cortex: Gadd45b; type: in vivo; conditions: diet 1 ppm Se, vs Se-deficient animals, * significant
Text: as §6, §7, §8

Gst zeta 1 (Gstz1) = experiment: Microarray gene expression, mouse cerebral cortex: Gstz1; type: in vivo; conditions: diet 1 ppm Se, vs Se-deficient animals, * significant
Text: as §6, §7, §8

[4] = tested on: Amyloid beta (A4) precursor-like protein (Aplp 1); experiment: Microarray gene expression, mouse cerebral cortex: Aplp 1; type: in vivo; conditions: diet 1 ppm Se, vs Se-deficient animals, * P < 0.01
Text: as §6, §7, §8

Cathepsin Z = experiment: Microarray gene expression, mouse cerebral cortex: Cathepsin Z; type: in vivo; conditions: diet 1 ppm Se, vs Se-deficient mice, * significant
Text: as §6, §7, §8

Glutathione Peroxidase 1 = experiment: Microarray gene expression, mouse intestine: Glutathione Peroxidase 1; type: in vivo; conditions: diet 1 ppm Se, vs selenium deficient, all p < 0.01
Text: as §6, §7, §8

[5] = tested on: Complement component 1, q subcomponent, beta polypeptide, C1qbp; experiment: Microarray gene expression, mouse cerebral cortex: C1q beta polypeptide; type: in vivo; conditions: diet 1 ppm Se, vs selenium deficient, * p<0.01
Text: as §6, §7, §8

[6] = tested on: Complement component 1, q subcomponent binding protein, C1qbp; experiment: Microarray gene expression, mouse cerebral cortex: C1qbp; type: in vivo; conditions: diet 1 ppm Se, vs selenium deficient, * p<0.01
Text: as §6, §7, §8

Cathepsin B = experiment: Microarray gene expression, mouse cerebral cortex: Cathepsin B; type: in vivo; conditions: diet 1 ppm Se, vs Se-deficient mice, * significant
Text: as §6, §7, §8

[7] = tested on: Amyloid beta (A4) precursor protein-binding, family B, member 1 (Apbb1 or Fe65); experiment: Microarray gene expression, mouse cerebral cortex: Apbb1/Fe65; type: in vivo; conditions: diet 1 ppm Se, vs Se-deficient animals, * P < 0.01
Text: as §6, §7, §8

[8] = tested on: Cu chaperone for SOD (CCS); experiment: Microarray gene expression, mouse intestine: CCS; type: in vivo; conditions: diet 1 ppm Se, vs selenium deficient
Text: as §6, §7, §8

[9] = tested on: Glutathione S-transferase, mu2 (Gstm2); experiment: Microarray gene expression, mouse intestine: Gstm2; type: in vivo; conditions: diet 1 ppm Se, vs Se-deficient diets, negative = down
Text: as §6, §7, §8

Selenoprotein W (SelW) = experiment: Microarray gene expression, mouse intestine: SelW; type: in vivo; conditions: diet 1 ppm Se, vs selenium deficient
Text: as §6, §7, §8

[10] = tested on: Gadd45g1p (Growth arrest and DNA-damage inducible 45 gamma interacting protein); experiment: Microarray gene expression, mouse cerebral cortex: Gadd45g1p; type: in vivo; conditions: diet 1 ppm Se, vs Se-deficient animals, * significant
Text: as §6, §7, §8

Cathepsin D = experiment: Microarray gene expression, mouse cerebral cortex: Cathepsin D; type: in vivo; conditions: diet 1 ppm Se, vs Se-deficient mice, * significant
Text: as §6, §7, §8

[11] = tested on: Complement component 1, q subcomponent, alpha polypeptide, C1qa; experiment: Microarray gene expression, mouse cerebral cortex: C1qa; type: in vivo; conditions: diet 1 ppm Se, vs selenium deficient, * p<0.01
Text: as §6, §7, §8

[12] = tested on: Amyloid beta (A4) precursor protein-binding, family A, member 1(Apba1); experiment: Microarray gene expression, mouse cerebral cortex: Apba1; type: in vivo; conditions: diet 1 ppm Se, vs Se-deficient animals, * P < 0.01
Text: as §6, §7, §8

Gst mu 7 (Gstm7) = experiment: Microarray gene expression, mouse cerebral cortex: Gstm7; type: in vivo; conditions: diet 1 ppm Se, vs Se-deficient animals, * significant
Text: as §6, §7, §8

[13] = tested on: Complement component 1, q subcomponent, gamma polypeptide, C1qg; experiment: Microarray gene expression, mouse cerebral cortex: C1qg; type: in vivo; conditions: diet 1 ppm Se, vs selenium deficient, * p<0.01
Text: as §6, §7, §8

[14] = tested on: Type 1 iodothyronine deiodinase; experiment: Microarray gene expression, mouse intestine: Type 1 iodothyronine deiodinase; type: in vivo; conditions: diet 1 ppm Se, vs selenium deficient
Text: as §6, §7, §8

Thioredoxin Reductase 1 = experiment: Microarray gene expression, mouse intestine: Thioredoxin Reductase 1; type: in vivo; conditions: diet 1 ppm Se, vs selenium deficient, p <0.01
Text: as §6, §7, §8

Nicastrin = experiment: Microarray gene expression, mouse cerebral cortex: Nicastrin; type: in vivo; conditions: diet 1 ppm Se, vs Se-deficient animals, * P < 0.01
Text: as §6, §7, §8

Cathepsin O = experiment: Microarray gene expression, mouse cerebral cortex: Cathepsin O; type: in vivo; conditions: diet 1 ppm Se, vs Se-deficient mice, * significant
Text: as §6, §7, §8

[15] = tested on: Glutathione S-transferase, alpha 3 (Gsta3); experiment: Microarray gene expression, mouse intestine: Gsta3; type: in vivo; conditions: diet 1 ppm Se, vs Se-deficient diets, negative = down
Text: as §6, §7, §8

SOD1 = experiment: Microarray gene expression, mouse intestine: SOD1; type: in vivo; conditions: diet 1 ppm Se, vs selenium deficient
Text: as §6, §7, §8

[16] = tested on: Glutathione S-transferase, theta 2 (Gstt2); experiment: Microarray gene expression, mouse intestine: Gstt2; type: in vivo; conditions: diet 1 ppm Se, vs Se-deficient diets, negative = down
Text: as §6, §7, §8

SelR (Selenoprotein X1) = experiment: Microarray gene expression, mouse intestine: SelR; type: in vivo; conditions: diet 1 ppm Se, vs selenium deficient
Text: as §6, §7, §8

Presenilin 1 = experiment: Microarray gene expression, mouse cerebral cortex: Presenilin 1; type: in vivo; conditions: diet 1 ppm Se, vs Se-deficient animals, * P < 0.01
Text: as §6, §7, §8

[17] = Body weight of mice on selenium diets; type: in vivo, mouse; conditions: diet 1 ppm Se vs selenium deficient diet; FIG. 1
Text: as §6
Experimental diets were created by Harlan Teklad (Madison, Wis.). Selenium content of the diets was determined by Covance Inc. (Madison, Wis.). […]
Thus, it was an object of the present invention to determine whether compositions and methods of the present invention could alter the expression levels (e.g., mRNA levels) of various genes. One group of genes analyzed were genes classically associated with selenium. As described above, the expression levels of genes were analyzed between mice with and without dietary selenium, or, between mice fed different sources of selenium) (See, e.g., Table 1, below).

[18] = tested on: Growth arrest and DNA-damage-inducible 45 gamma (Gadd45g); experiment: Microarray gene expression, mouse intestine: Gadd45g; type: in vivo; conditions: diet 1 ppm Se, vs selenium deficient, negative = down, listed as SS
Text: as §6
Experimental diets were created by Harlan Teklad (Madison, Wis.). Selenium content of the diets was determined by Covance Inc. (Madison, Wis.). Five (5) animals were included in each of the following treatment groups: a diet deficient in selenium (SD); a diet supplemented with selenomethionine (SM, obtained from Sigma, St. Louis, Mo.) such that the final selenium content of the diet was one (1) part per million; a diet supplemented with sodium selenite (SS, Sigma) such that the final concentration of selenium in this diet was one (1) part per million; or a diet supplemented with the yeast selenium SEL-PLEX (SP, Alltech, Lexington, Ky.), such that the final concentration of selenium in this diet was one (1) part per million. SEL-PLEX. Mice were provided with water and their respective diet ad libitum for 100 days. Diets were stored at the dark at 4° C. and fresh diet was added to feeder twice weekly.
Tissue sample preparation and microarray analysis. Mice were killed at 100 days of age by cervical dislocation. For intestinal expression studies, the intestine was flushed twice with saline solution and small intestine was measured and divided in three equal segments. A 3-cm region of the middle segment of the small intestine corresponding to the jejunum (˜300 mg of tissue) was cut and rinsed again with physiological saline to completely remove contents, flash frozen in liquid nitrogen and stored at −80° C. For brain (e.g., cerebral cortex) studies, the cerebral cortex was separated from the surrounding brain tissue and was flash frozen in liquid nitrogen and stored at −80° C. […]

[19] = tested on: Glutathione S-transferase, mu3 (Gstm3); experiment: Microarray gene expression, mouse intestine: Gstm3; type: in vivo; conditions: diet 1 ppm Se, vs Se-deficient diets, negative = down
Text: as §6, §7, §8

[20] = tested on: Glutathione S-transferase, mu1 (Gstm1); experiment: Microarray gene expression, mouse intestine: Gstm1; type: in vivo; conditions: diet 1 ppm Se, vs Se-deficient diets, negative = down
Text: as §6, §7, §8

Gst pi 1 (Gstp1) = experiment: Microarray gene expression, mouse cerebral cortex: Gstp1; type: in vivo; conditions: diet 1 ppm Se, vs Se-deficient animals, * significant
Text: as §6, §7, §8

Junb = experiment: Microarray gene expression, mouse cerebral cortex: Junb; type: in vivo; conditions: diet 1 ppm Se, vs Se-deficient animals, * significant
Text: as §6, §7, §8

Structure (SMILES): O=[Se](O)O [Selenite]
- Hen Brain Se Concentration [1]: 850 ppb
- Chick Brain Se Concentration at day 14 [2]: 784 ppb

Structure (SMILES): O=[Se](O)O [Sod-sel, sodium selenite]
- fold change in expression of Glutathione Peroxidase 3 (Glutathione Peroxidase 3): 3.5 fold
- FC (fold change) expression of C1r [3]: −1.29 fold
- FC (fold change) expression of Gadd45b in brain (Gadd45b): −1.39* fold
- FC (fold change) expression of Gstz1 (Gst zeta 1 (Gstz1)): −1.3 fold
- FC (fold change) expression of Aplp 1 [4]: −1.55* fold
- FC (fold change) expression of Cathepsin Z (Cathepsin Z): −1.30* fold
- fold change in expression of Glutathione Peroxidase 1 (Glutathione Peroxidase 1): 4.1 fold
- FC (fold change) expression of complement component 1, q subcomponent, beta polypeptide [5]: −1.35 fold
- FC (fold change) expression of C1qbp [6]: 1.11 fold
- FC (fold change) expression of Cathepsin B (Cathepsin B): −1.13* fold
- FC (fold change) expression of Apbb1 (Fe65) [7]: −1.32* fold
- enhancement in expression of the Cu chaperone for SOD (CCS), fold [8]: 1.28 fold
- FC (fold change) expression of Gstm2 [9]: −2.1 fold
- expression of Selenoprotein W (SelW), fold upregulated (Selenoprotein W (SelW)): 5.1 fold
- FC (fold change) expression of Gadd45g1p in brain [10]: −1.12 fold
- FC (fold change) expression of Cathepsin D (Cathepsin D): −1.24* fold
- FC (fold change) expression of C1qa [11]: −1.18 fold
- FC (fold change) expression of Apba1 [12]: −1.41 fold
- FC (fold change) expression of Gstm7 (Gst mu 7 (Gstm7)): −1.25* fold
- FC (fold change) expression of C1qg [13]: −1.07 fold
- fold increase of expression level of Type 1 iodothyronine deiodinase [14]: 2.8 fold
- fold increase in expression of the Thioredoxin Reductase 1 gene (Thioredoxin Reductase 1): 1.7 fold
- FC (fold change) expression of Nicastrin (Nicastrin): −1.67* fold
- FC (fold change) expression of Cathepsin O (Cathepsin O): −1.18 fold
- FC (fold change) expression of Gsta3 [15]: −2.3 fold
- enhanced expression of SOD1, fold (SOD1): 1.92 fold
- FC (fold change) expression of Gstt2 [16]: −1.3 fold
- expression of SelR, fold upregulated (SelR (Selenoprotein X1)): 1.3 fold
- FC (fold change) expression of Presenilin 1 (Presenilin 1): −1.11 fold
- body weights of mice [17]: No significant differences
- FC (fold change) expression of Gadd45g [18]: −2.0 fold
- FC (fold change) expression of Gstm3 [19]: −2.7 fold
- FC (fold change) expression of Gstm1 [20]: −2.4 fold
- FC (fold change) expression of Gstp1 (Gst pi 1 (Gstp1)): 1.02 fold
- FC (fold change) expression of Junb (Junb): −1.59 fold
